Assays:
C. jejuni = assay: Spot Test, antagonistic activity of isolated signal peptides; type: cell-based, Campylobacter jejuni; conditions: isolated signal peptide
Experimental: The antagonistic activity of the bacteriocins produced when using the signal peptide and an inducer strain of bacteria against C. jejuni and S. enteritidis was assessed using a Spot Test. The steps included taking various concentrations of pure preparation (μg/ml) of the bacteriocin in approximately 10 microliters of volume plated onto blood-supplemented Campylobacter agar or Nutrient agar (MPA or Meta Peptone Agar) previously seeded with cells of target bacteria. Plates containing cultures of C. jejuni were grown at about 42° C., under microaerobic conditions. Plates containing S. enteritidis were grown at about 37° C. under aerobic conditions. Activity of the bacteriocin was expressed in arbitrary units (AU) per one milliliter of the preparation at which a visible zone of inhibition of the growth of culture appears (Henderson et al., Archives of Biochemistry and Biophysics, Volume 295, 5-12, 1992; herein incorporated by reference). Specific activity can also expressed as arbitrary units per milligram of pure bacteriocin.
Its activity was about 200 AU/ml and its molecular weight was about 2.5 kDa, as determined by SDS-PAGE electrophoresis. The isoelectric point (pI) was about 7.9 (FIGS. 1A and 1B).
Its molecular weight was about 3.1 kDa as measured by SDS-PAGE and the isoelectric point (pI) was about 8.1 (FIGS. 2A and 2B).
Its molecular weight was about 2.1 kDa as determined by SDS-PAGE electrophoresis and its isoelectric point was about 8.9 (FIGS. 3A and 3B).

[1] = Isoelectric point by isoelectrofocusing; type: physicochemical
Description: FIGS. 1A and 1B are photographs showing the direct detection of signal peptide and bacteriocin OR-7 after SDS-PAGE (A) and isoelectrofocusing (B). […] In FIG. 1A Lane 1-Molecular Mass Markers LMW Range 2,100-12,500 (Amersham Pharmacia Biotech): 2,100; 5,780; 8,400; 12,500 Da. […] Lane 3 contained pI standards (Protein Test Mixture, I Marker Proteins, Serva): 10.0, 9.2, 8.1, 6.9, 5.5, 4.3.
FIGS. 2A and 2B are photographs showing direct detection of signal peptide and bacteriocin 50-52 after SDS-PAGE (A) and isoelectrofocusing (B). […] Lane 3 contained pI standards (Protein Test Mixture, I Marker Proteins, Serva): 10.0, 8.1, 7.9, 6.4, 5.5, 4.3, 4.1, and 3.8.
FIGS. 3A and 3B are photographs showing the direct detection of signal peptide and bacteriocin 760 after SDS-PAGE(A) and isoelectrofocusing (B). […] Lane 3 contained pI standards (Protein Test Mixture, I Marker Proteins, Serva): 10.0, 8.1, 7.9, 6.4, 5.5, 4.3, 4.1, and 3.8.
At the end of 14 hours the supernatant from the cultures was placed into 500 ml centrifuge flasks with about one milliliter of regenerated Sepharose SP Fast Flow (v/v 500: 1). This was incubated for approximately 1 hour at room temperature with stirring. The suspension was then washed with about 100 ml of a 0.2 M TRIS-HCl buffer pH approximately 6.4. The bacteriocins were eluted by centrifugation with about 100 ml of approximately 0.2 M K2HPO4, pH of about 5.8 at about 7,000×g for approximately 10 minutes. Antagonistic activity of the bacteriocin fractions against C. jejuni and S. enteritidis was assessed using a Spot Test as described above. The level of purity of the bacteriocin fractions was determined by SDS-PAGE. The isoelectric points of the fractions were determined by isoelectric focusing. Concentrations of protein for all bacteriocin fractions were determined at 215 nm using a spectrophotometer.

[2] = system: Lactobacillus salivarius PVD-32; assay: Influence of signal peptide on bacteriocin OR-7 production, flask culture (fraction protein at 215 nm, activity by Spot Test against C. jejuni and S. enteritidis); type: cell-based
[3] = system: Enterococcus faecium LWP 50-52; assay: Influence of signal peptide on bacteriocin 50-52 production, flask culture (fraction protein at 215 nm, activity by spot-test against C. jejuni and S. enteritidis); type: cell-based
[4] = 10% B-B, producer PVD-32 + inducer LWP-252, LWP 760 peptide 0.1 mg
[5] = LWP 50-52 + LWP 320, LWP 760 peptide 0.1 mg/ml

Sequence: WNKYKTNWVLSVCNTGCACAAVKGLT (listed as Streptococcus cricetus) [LWP 760 Signal Peptide, signal peptide isolated from Streptococcus cricetus LWP 760, stimulates bacteriocin 760 production]
- antagonistic activity (C. jejuni): did not possess antagonistic activity
- isoelectric point (pI) [1]: about 8.9
- Activity [2, 4]: 102,400 AU/ml
- Protein Concentration [2, 4]: 0.19 Mg/ml
- Protein increase vs. Control [2, 4]: 0.95
- Specific Activity [2, 4]: 538,947 AU/mg
- mg protein/liter [2, 4]: 62.7 mg protein/liter
- yield of bacteriocin OR-7 versus the control ([2]; signal peptide of another strain added to PVD-32 + LWP-252): does not increase
- Activity [3, 5]: 819,200 AU/ml
- Protein Concentration [3, 5]: 0.25 mg/mL
- Protein increase vs. Control [3, 5]: 1
- Specific Activity [3, 5]: 3,276,800 AU/mg
- mg protein/liter [3, 5]: 82.5 mg protein/liter
- yield of bacteriocin 50-52 versus the control ([3]; signal peptide of another strain added to LWP 50-52 + LWP 320): did not increase

Source: patent US7354904B2, “Bacteriocin inducer peptides” (priority 2005, dated 2008)
